Like-named read-outs stand apart in the source and are kept apart here.
Key:
[1] = tested on: human cervix carcinoma HeLa cells; test: MTT assay, HeLa; type: cell-based
Description: (§3) Solutions of the platinum compounds were freshly prepared in sterile PBS before use and their concentrations quantitated by atomic absorption spectroscopy. Cells were seeded on a 96-well plate (1200 cells per well for cancer cells and 1800 cells per well for the normal lung fibroblasts) in 100 μL RPMI or DMEM media, and incubated for 24 h. […] The cells were then treated with 20 μL of 3-(4,5-dimethylthiazol-2-yl)-2,5-diphenyltetrazolium bromide (MTT) (5 mg/mL in PBS) and incubated for 4 h. The medium was removed, 100 μL of DMSO was added to the cells, and the absorbance of the purple formazan was recorded at 560 nm using a BioTek Synergy HT multi-detection microplate plate reader. Each condition was performed in triplicate and three independent experiments were carried out for each cell line.
Human prostate carcinoma (PC3) and human cervix carcinoma (HeLa) cells were obtained from the ATCC. The human lung carcinoma cell line A549 was kindly provided by David E. Root (Whitehead Institute for Biomedical Research). Cells were incubated at 37° C. in 5% CO2 and grown in RPMI (PC3) or DMEM (A549 and HeLa) medium supplemented with 10% fetal bovine serum and 1% penicillin/streptomycin. Cells were passaged every 3 to 4 days and restarted from the frozen stock upon reaching passage number 20.
Solutions of the platinum agents were freshly prepared in sterile PBS before use and the platinum content was quantitated by AAS. Cells were seeded on 96 well plates (1200 cells per well) in 100 μL RPMI or DMEM media\ and incubated for 24 hours. […] The cells were then treated with 20 μL of 3-(4,5-dimethylthiazol-2-yl)-2,5-diphenyltetrazolium bromide (MTT) (5 mg/mL in PBS) and incubated for 4 h. The medium was removed, 100 μL of DMSO were added to the cells, and the absorbance of the purple formazan was recorded at 570 nm using a BioTek Synergy HT multi-detection microplate plate reader. For each cell line, three independent experiments were carried out in triplicate.

[2] = tested on: human breast carcinoma MCF7; test: MTT assay, MCF7; type: cell-based
Description: (§1) Human colon carcinoma HT29, human breast carcinoma MCF7, human bone sarcoma U2OS, human prostate carcinoma PC3, and human cervix carcinoma HeLa cells were obtained from the ATCC. A2780/CP70 cisplatin-resistant human ovarian cancer cells were kindly provided by Dr. Stephen B. Howell (Moores UCSD Cancer Center) and the human lung carcinoma cell lines A549 and normal lung fibroblast MRC5 by David E. Root (Whitehead Institute for Biomedical Research). Cells were incubated at 37° C. in 5% CO2 and grown in RPMI (HT29, A2780/CP70, and PC3) or DMEM (A549, MRC5, HeLa, MCF7, and U2OS) medium supplemented with 10% fetal bovine serum and 1% penicillin/streptomycin. Cells were passed every 3 to 4 days and restarted from a frozen stock upon reaching pass number 20.
(§2) Solutions of the platinum compounds were freshly prepared in sterile PBS before use and their concentrations quantitated by atomic absorption spectroscopy. […] The cells were then treated with 20 μL of 3-(4,5-dimethylthiazol-2-yl)-2,5-diphenyltetrazolium bromide (MTT) (5 mg/mL in PBS) and incubated for 4 h. The medium was removed, 100 μL of DMSO was added to the cells, and the absorbance of the purple formazan was recorded at 560 nm using a BioTek Synergy HT multi-detection microplate plate reader. Each condition was performed in triplicate and three independent experiments were carried out for each cell line.

human bone sarcoma U2OS = test: MTT assay, U2OS; type: cell-based
Description: as §1, §2

[3] = tested on: Human colon carcinoma HT29; test: MTT assay, HT29; type: cell-based
Description: as §1, §2

NTera2 = test: MTT assay, NTera2; type: cell-based, human; settings: Table 3, NTera2 Testis, 72-h incubation
Description: as §3

[4] = tested on: normal lung fibroblast MRC5; test: MTT assay, MRC5; type: cell-based, human
Description: as §1, §2

[5] = tested on: Gaussia luciferase expression in human cancer cells; settings: for Transcription (normalized against unplatinated control): NoPt = 100, cell line not stated
Description: Vector Construction and Preparation. […] Preparation of Platinated Insertion Strand. […] The suspension was centrifuged. To a solution of 0.2 mM 16-mer oligonucleotide 5′-[…]*[…] The reaction mixture was incubated in the dark at 37° C. overnight. The reaction was stopped when the solution was frozen. […] After purification, the platinated DNA solution was dialyzed against H2O and lyophilized. […] The insertion strand was further analyzed for nucleotide composition by nuclease S1 digestion to confirm the platination site following a protocol published previously (Table 13) (e.g., see J Am Chem Soc 2007, 129, 6370-6371). The platinated and unplatinated DNA strands (40 μM) were phosphorylated by T4 PNK (0.67 U/μL) at 37° C. for 3 h, followed by a phenol/chloroform/isoamyl alcohol extraction to remove the enzyme. The phosphorylated DNA strands were ethanol precipitated and stored in −80° C. at a concentration of 100 pmol/μL.
Briefly, a 600 μg quantity of pGLuc8temG plasmid was digested with 30 U Nt.BbvCI at 37° C. for 1 h. The reaction mixture was heated at 80° C. for 20 min to deactivate the enzyme, followed by a phenol/chloroform/isoamyl alcohol extraction to remove the enzyme. The mixture was dialyzed against H2O overnight at 4° C. The plasmid was further digested with 30 U Nt.BspQI at 50° C. for 1 h, and the enzyme was heat-deactivated and removed by a phenol/chloroform/isoamyl alcohol extraction. The nicked plasmid was mixed with 1,000 equiv of complementary DNA strand 5′-[…] (SEQ ID NO: 2) in a buffer of 10 mM Tris-HCl, 2 mM MgCl2, 0.4 M NaCl, pH 7.4, heated at 80° C. for 5 min, and subsequently cooled at 4° C. for 5 min for 10 cycles. […] A 120 μg quantity of the gapped plasmid was annealed with 100 equiv of the insertion strand in a buffer of 10 mM Tris-HCl, 2 mM MgCl2, 0.4 M NaCl, pH 7.4 from 90° C. to 4° C. at −1° C./min in a thermocycler. The platinated plasmid was dialyzed against H2O at 4° C. overnight and further purified by treatment with 30 U BsmBI at 55° C. for 1 h. The closed-circular form of plasmid was purified and concentrated by isopycnic centrifugation, followed by n-butanol extraction and ethanol precipitation. The plasmids were quantitated by a Quant-iT™ PicoGreen® dsDNA Kit from Invitrogen (Carlsbad, Calif.), and stored in −80° C. in TE buffer (10 mM Tris-HCl, 2 mM EDTA, pH 7.4).
Transfection of platinated plasmids into mammalian cells was carried out as reported previously (e.g., see ChemBioChem 2011, 12, 1115-1123). A549 and HeLa cells were plated at 2,000 cells per well in 96-well plates. NTera-2 and HT29 cells were plated at 4,000 cells per well in 96-well plates. MCF7 and U2OS cells were plated at 5,000 cells per well in 96-well plates. The cells were allowed to attach and grow for 48 h, and then washed with antibiotic-free culture media right before transfection. Transient transfection of the cells was carried out using Lipofectamine 2000. Briefly, 10 ng of site specifically platinated probes was included in each well. The experiments were performed in quadruplicate. The probes were diluted in OptiMEM, and Lipofectamine was diluted in OptiMEM. The two solutions were combined and incubated for 20 min. The transfection mixture was delivered into each well, and the cells were incubated for 2 h. The cells were washed with antibiotic-free culture media to remove the transfection mixture. A 100 μL volume of fresh, antibiotic-free media was added into each well to start the transcription assay. […]

[6] = equimolar N-AcMet, 37° C.
Description: NMR spectra were collected on a Varian 500 spectrometer equipped with a triple-resonance broadband inverse probe and a variable temperature unit. The 1-D ^1H NMR kinetic studies were performed in duplicate as a standard time-arrayed experiment using a variable delayed list. Incremented 1-D spectra were processed in exactly the same way and signals of aromatic amine ligands from platinum compounds were integrated. The relative concentrations of the platinum compound at each time point were calculated from peak integrals. […] Reactions of platinum compounds with N-AcMet were performed in NMR tubes containing 2 mM of the Pt complex and 2 mM (1 equiv) of N-AcMet in 10 mM PBS buffer, D2O, pH*7.4 at 37° C. […] Deuterated 3-(trimethylsilyl)propionic acid sodium salt (TMS-PFASS) was used as an internal standard. The pH* values are the measured pH values without correction for the effect of deuterium on the electrode.

[7] = tested on: 60 different human cancer cell lines; test: NCI-60 DTP Human Tumor Cell Line Screen; settings: single dose of 10 μM

## cis-[Pt(NH3)2(phenanthridine)Cl]NO3 [phenanthriplatin]
[1]; Table 3, HeLa Cervix, 72-h incubation
  IC50: 300 ± 20 nM
[1]; Table 5, HeLa, 72-h incubation
  IC50: 300 ± 20 nM
[1]; Table 11 (Example 3), HeLa Cervix, 72 h
  IC50: 210 ± 35 nM
[1]; Table 14, HeLa, MTT assay
  IC50: 370 ± 40 nM
[2]; Table 3, MCF7 Breast, 72-h incubation
  IC50: 940 ± 90 nM
[2]; Table 14, MCF7, MTT assay
  IC50: 1140 ± 20 nM
Human bone sarcoma U2OS; Table 3, U2OS Bone, 72-h incubation
  IC50: 590 ± 40 nM
Human bone sarcoma U2OS; Table 5, U2OS, 72-h incubation
  IC50: 590 ± 40 nM
Human bone sarcoma U2OS; Table 14, U2OS, MTT assay
  IC50: 1050 ± 20 nM
[3]; Table 3, HT29 Colorectal, 72-h incubation
  IC50: 2020 ± 40 nM
[3]; Table 5, HT29, 72-h incubation
  IC50: 2020 ± 40 nM
[3]; Table 14, HT29, MTT assay
  IC50: 2020 ± 40 nM
NTera2
  IC50: 35 ± 2 nM
[4]; Table 4, MRC5 normal lung fibroblast, 72 h incubation
  IC50: 860 ± 60 nM
[4]; Table 5, MRC5, 72-h incubation
  IC50: 860 ± 60 nM
[5]; 16 hours
  Transcription (normalized against unplatinated control): 26
[5]; 24 hours
  Transcription (normalized against unplatinated control): 32
[5]; 32 hours
  Transcription (normalized against unplatinated control): 36
[5]; 44 hours
  Transcription (normalized against unplatinated control): 41
[5]; site-specific cis-[Pt(NH3)2(phen)]2+-dG lesion
  transcription inhibition in live mammalian cancer cells: strong transcription inhibitor
[6]
  second-order rate constant, reaction with N-AcMet: 0.00944 M⁻¹ s⁻¹
[7]
  growth inhibition of the 60 cell lines: significant growth inhibition

Source: patent publication US9034862B2, “Compositions and methods for the treatment of cancer” (priority 2011, dated 2015)
